We go through 23 molecules from patent US20240391931A1 (Bristol-Myers Squibb Company, priority 2021, published 2024).

Where a name gives a salt, the structure may show the parent alone.

This assay deals with HER2YVMA (Homo sapiens, UniProt P04626, INS775YVMA). The experiment in a line: HER2 signaling (pHER2) in Hek293-HER2YVMA cells. The assay is classed as cell-based. The arrangement: expressed in transfected cells; host or cells: HEK293 (pool), Ba/F3 (clones), BEAS2B (clones); lentiviral vector pCDH-CMV-MCS-EF1-Neo. The settings on record: 1.5 hr compound, 1% FBS, read-out: HEKYVMA pHER2 EC50. The protocol:
Cell culture, plasmid cloning, and lentiviral transduction were carried out according to standard procedures. The Human HER2 cDNA construct in pCMV6-Entry for the HER2 wildtype (WT) expression was obtained from Origene. The HER2 cDNA including the 12-nucleotide insertion corresponding to YVMA insertion (HER2YVMA) was codon optimized, synthesized and cloned by GenScript (Piscataway, NJ) in pcDNA3.1. The lentiviral constructs expressing HER2YVMA and HER2 WT were sub-cloned using PCR at System Biosciences (SBI, Mountainview, CA) into lentiviral vectors pCDH-CMV-MCS-EF1-Neo and lentiviral particles were generated.
Engineered lines expressing HER2YVMA and HER2 WT were prepared in HEK293 (human embryonic kidney cells), Ba/F3 (Interleukin 3 (IL3)-dependent murine pro B cell line), and BEAS2B (primary immortalized human bronchial epithelial cell line). Ba/F3, BEAS2B, and HEK293 cells were obtained from the American Type Culture Collection (ATCC, Manassas, VA). Parental Ba/F3 cells were grown in suspension in complete RPMI 1640 supplemented with 10% FBS and 1% P/S and 10 ng/ml interleukin 3 (IL3, Sigma-Aldrich). Hek293 and BEAS2B cells were grown as monolayers in DMEM supplemented with 10% FBS and 1% P/S. All cells were maintained and propagated in a humidified 5% CO2 incubator at 37° C.
To generate Ba/F3, BEAS2B, and Hek-293 cells engineered with lentivirus to express HER2 WT or HER2YVMA, the cells were transduced with lentiviruses at multiplicity of infection (MOI) of 1 or 10; transduced cells were selected and maintained with G418 ([…]) (Geneticin, Life Technologies, Carlsbad, CA). Ba/F3 engineered cells were subjected to gradual withdrawal of interleukin 3 (IL-3, Sigma-Aldrich). After selection, IL3 independent Ba/F3 HER2YVMA, and BEAS2B HER2YVMA cells were cloned by limiting dilution. Hek293 HER2YVMA cells were used as pool. HER2 and phospho HER2 levels were confirmed by flow cytometery and immunoassay (MSD, Meso-Scale Discovery, Rockville, Maryland).
HER2 signaling was assessed in BT474 and N87 cell lines which endogenously overexpress the HER2 wildtype (WT) protein, in NCI-H1781 cells which endogenously expresses a HER2 mutant protein containing a VC insertion in the kinase domain (HER2VC or G776delinsVC), and in engineered cell lines transduced to express the Her2 mutant protein containing the YVMA insertion (Hek293-HER2YVMA and BEAS2B-HER2YVMA).
BT474, N87, and NCI-H1781 were plated in 96-well tissue-culture treated plates (Corning Costar, Sigma-Aldrich) in full media and incubated overnight. Hek293-HER2YVMA and BEAS2B-HER2YVMA cells were plated in 96-well poly-D-lysine treated plates (BD Bioscience, San Jose, CA). For treatment with test compounds, the media was replaced with corresponding low serum media (1% FBS) containing test compound at 1.1, 0.37, 0.12, 0.041, 0.014, 0.005, 0.0014, 0.0005 μM or DMSO control (0.1%). Cells were incubated with compound for 1.5 hr at 37° C. After compound treatment, the media was removed and cells were lysed for 30 min on ice in complete MSD lysis buffer (prepared using MSD base lysis buffer (Meso-Scale Discovery) supplemented with cOmplete, EDTA-free Protease inhibitor cocktail (Roche), Phosphatase Inhibitor Cocktails 2 and 3 (Sigma-Aldrich), and 1 mM PMSF (Sigma-Aldrich)). Lysates were stored at −70° C. until further analysis.
HER2 signaling was evaluated using phospho (Tyr1248)/total ErbB2 whole cell lysate MSD plates (Meso-Scale Discovery, Gaithersburg, MD). The phospho HER2 signal was normalized to total HER2 for each sample; results are reported as % DMSO control. The normalized data was fitted using a sigmoidal curve analysis program (Graph Pad Prism version 6) with variable Hill slope to determine EC50 values.
The HER2 signaling results are provided in Table 4, under columns titled “BT474-pHER2 EC50”, “N87-pHER2 EC50”, and “NCI-H1781-pHER2 EC50”. […]

Chain of HER2YVMA (P04626 with tags, fused parts or gaps INS775YVMA): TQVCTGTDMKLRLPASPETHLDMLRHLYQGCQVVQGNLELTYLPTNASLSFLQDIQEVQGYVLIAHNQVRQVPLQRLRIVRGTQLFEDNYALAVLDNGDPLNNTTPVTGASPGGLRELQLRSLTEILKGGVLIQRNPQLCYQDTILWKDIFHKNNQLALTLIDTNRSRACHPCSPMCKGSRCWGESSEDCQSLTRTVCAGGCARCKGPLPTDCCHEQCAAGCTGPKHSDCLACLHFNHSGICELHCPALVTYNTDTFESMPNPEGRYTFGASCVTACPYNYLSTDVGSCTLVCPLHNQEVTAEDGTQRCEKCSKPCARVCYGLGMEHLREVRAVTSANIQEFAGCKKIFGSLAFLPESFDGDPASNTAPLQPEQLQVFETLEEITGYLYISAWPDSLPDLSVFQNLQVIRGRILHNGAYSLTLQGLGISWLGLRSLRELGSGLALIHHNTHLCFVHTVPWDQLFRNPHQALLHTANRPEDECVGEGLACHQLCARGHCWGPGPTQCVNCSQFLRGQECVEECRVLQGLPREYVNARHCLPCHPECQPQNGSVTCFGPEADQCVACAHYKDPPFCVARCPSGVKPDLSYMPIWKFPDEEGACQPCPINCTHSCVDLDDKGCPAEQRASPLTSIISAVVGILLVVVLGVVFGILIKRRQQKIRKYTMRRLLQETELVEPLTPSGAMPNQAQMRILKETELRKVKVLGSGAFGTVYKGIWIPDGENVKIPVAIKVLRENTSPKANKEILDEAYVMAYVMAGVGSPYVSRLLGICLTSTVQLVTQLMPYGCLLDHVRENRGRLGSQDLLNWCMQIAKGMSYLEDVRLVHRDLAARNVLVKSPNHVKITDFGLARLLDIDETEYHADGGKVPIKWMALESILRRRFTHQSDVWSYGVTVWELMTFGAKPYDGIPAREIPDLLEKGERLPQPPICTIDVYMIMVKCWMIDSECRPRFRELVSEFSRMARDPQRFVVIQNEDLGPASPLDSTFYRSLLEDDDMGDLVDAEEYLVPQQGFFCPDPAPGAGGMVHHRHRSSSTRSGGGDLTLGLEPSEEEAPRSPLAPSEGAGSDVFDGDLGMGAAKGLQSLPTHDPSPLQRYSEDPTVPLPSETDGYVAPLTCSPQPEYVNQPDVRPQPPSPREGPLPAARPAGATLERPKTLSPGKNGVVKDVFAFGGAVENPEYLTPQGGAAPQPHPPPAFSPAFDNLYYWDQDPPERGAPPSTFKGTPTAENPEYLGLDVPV

As to `C=CC(=O)N1[C@H](C)Cc2c(sc3ncnc(Nc4ccc(Oc5ccc(C)nc5)c(C)c4)c23)[C@H]1C` (racemic) [Compound 166, 1-(6,8-trans-dimethyl-4-((3-methyl-4-((6-methylpyridin-3-yl)oxy)phenyl)amino)-5,8-dihydropyrido[4′,3′:4,5]thieno[2,3-d]pyrimidin-7(6H)-yl)prop-2-en-1-one], the EC50 is below 100 nM.
Under `Cc1cc(Nc2ncnc3sc4c(c23)CCN(C(=O)/C=C/CN(C)C)C4)ccc1Oc1ccn2ccnc2c1` [Compound 126, (E)-4-(dimethylamino)-1-(4-((4-(imidazo[1,2-a]pyridin-7-yloxy)-3-methylphenyl)amino)-5,8-dihydropyrido[4′,3′:4,5]thieno[2,3-d]pyrimidin-7(6H)-yl)but-2-en-1-one] stands below 100 nM.
As to `Cc1ccc(Oc2ccc(Nc3ncnc4sc5c(c34)C(C)CN(C(=O)/C=C/CN3CCOCC3)C5)cc2C)cn1` (centres unmarked) [Compound 174, (E)-1-(5-Methyl-4-((3-methyl-4-((6-methylpyridin-3-yl)oxy)phenyl)amino)-5,6-dihydropyrido[4′,3′:4,5]thieno[2,3-d]pyrimidin-7(8H)-yl)-4-morpholinobut-2-en-1-one], the EC50 is below 100 nM.
For the molecule `Cc1ccc(Oc2ccc(Nc3ncnc4sc5c(c34)CCN(C(=O)/C=C/CN3CCO[C@H](CO)C3)C5)cc2C)cn1` [Compound 136], the EC50 is below 100 nM.
On to `COc1ccc(Oc2ccc(Nc3ncnc4sc5c(c34)CCN(C(=O)/C=C/CN(C)C(C)(C)C)C5)cc2C)cn1` [Compound 163], for which the EC50 was below 100 nM.
With `Cc1cc(Nc2ncnc3sc4c(c23)CCN(C(=O)/C=C/CN(C)C)C4)ccc1Oc1ccc2scnc2c1` [Compound 107, (E)-1-(4-((4-(benzo[d]thiazol-5-yloxy)-3-methylphenyl)amino)-5,8-dihydropyrido[4′,3′:4,5]thieno[2,3-d]pyrimidin-7(6H)-yl)-4-(dimethylamino)but-2-en-1-one] the figure was below 100 nM.
With `Cc1ccc(Oc2ccc(Nc3ncnc4sc5c(c34)CCN(C(=O)/C=C/CN3CC4CCC(C4)C3)C5)cc2C)cn1` [Compound 16, (E)-4-(3-azabicyclo[3.2.1]octan-3-yl)-1-(4-((3-methyl-4-((6-methylpyridin-3-yl)oxy)phenyl)amino)-5,8-dihydropyrido[4′,3′:4,5]thieno[2,3-d]pyrimidin-7(6H)-yl)but-2-en-1-one benzenesulfonate salt] the figure was below 100 nM; with `Cc1ccc(Oc2ccc(Nc3ncnc4sc5c(c34)C(C)CN(C(=O)C=CCN(C)C(C)(C)C)C5)cc2C)cn1` (single isomer, unassigned) [Compound 178], below 100 nM.
Under `COc1ccc(Oc2ccc(Nc3ncnc4sc5c(c34)CCN(C(=O)/C=C/CN(C)C)CC5)cc2C)cn1` [Compound 173, (E)-4-(Dimethylamino)-1-(4-((4-((6-methoxypyridin-3-yl)oxy)-3-methylphenyl)amino)-8,9-dihydro-5H-pyrimido[5′,4′:4,5]thieno[2,3-d]azepin-7(6H)-yl)but-2-en-1-one] stands 100 to 350 nM; under `C#CCOCCN(C)C/C=C/C(=O)N1CCc2c(sc3ncnc(Nc4ccc(Oc5ccc(C)nc5)c(C)c4)c23)C1` [Compound 139], below 100 nM.
Take `Cc1ccc(Oc2ccc(Nc3ncnc4sc5c(c34)CCN(C(=O)/C=C/CN(C)C)CC5)cc2Cl)cn1` [Compound 167, (E)-1-(4-((3-Chloro-4-((6-methylpyridin-3-yl)oxy)phenyl)amino)-8,9-dihydro-5H-pyrimido[5′,4′:4,5]thieno[2,3-d]azepin-7(6H)-yl)-4-(dimethylamino)but-2-en-1-one]: the EC50 lay in the range of 100 to 350 nM.
In the case of `Cc1ccc(Oc2ccc(Nc3ncnc4sc5c(c34)C(C)N(C(=O)/C=C/CN(C)C)C5)cc2C)cn1` (centres unmarked) [Compound 141, (E)-4-(dimethylamino)-1-(5-methyl-4-((3-methyl-4-((6-methylpyridin-3-yl)oxy)phenyl)amino)-5,7-dihydro-6H-pyrrolo[3′,4′:4,5]thieno[2,3-d]pyrimidin-6-yl)but-2-en-1-one], the EC50 was below 100 nM.
`Cc1ccc(Oc2ccc(Nc3ncnc4sc5c(c34)CCN(C(=O)/C=C/CN(C)C)C5)cc2C)cn1` [Compound 8, (E)-4-(Dimethylamino)-1-(4-((3-methyl-4-((6-methylpyridin-3-yl)oxy)phenyl)amino)-5,6-dihydropyrido[4′,3′:4,5]thieno[2,3-d]pyrimidin-7(8H)-yl)but-2-en-1-one]: the EC50 was below 100 nM.
Regarding `COc1ccc(Oc2ccc(Nc3ncnc4sc5c(c34)C(C)CN(C(=O)C=CCN(C)C)C5)cc2C)cn1` (single isomer, unassigned) [Compound 159], the EC50 is below 100 nM.
Take `Cc1ccc(Oc2ccc(Nc3ncnc4sc5c(c34)C(C)CN(C(=O)C=CCN3CCOCC3)C5)cc2C)cn1` (single isomer, unassigned) [Compound 176]: the 50% effective concentration (EC50) is below 100 nM.
Under `Cc1ccc(Oc2ccc(Nc3ncnc4sc5c(c34)CN(C(=O)C=CCN(C)C)C5C)cc2C)cn1` (single isomer, unassigned) [Compound 170] stands 350 to 1000 nM.
`COc1ccc(Oc2ccc(Nc3ncnc4sc5c(c34)CN(C(=O)/C=C/CN(C)C)C5)cc2C)cn1` [Compound 128, (E)-4-(dimethylamino)-1-(4-((4-((6-methoxypyridin-3-yl)oxy)-3-methylphenyl)amino)-5,7-dihydro-6H-pyrrolo[3′,4′:4,5]thieno[2,3-d]pyrimidin-6-yl)but-2-en-1-one]: the 50% effective concentration (EC50) was below 100 nM.
Under `CCN(CC)C/C=C/C(=O)N1CCc2c(sc3ncnc(Nc4ccc(Oc5ccc(C)nc5)c(C)c4)c23)C1` [Compound 131] stands below 100 nM.
As to `Cc1ccc(Oc2ccc(Nc3ncnc4sc5c(c34)CCN(C(=O)/C=C/CN3CCO[C@@H](CO)C3)C5)cc2C)cn1` [Compound 144], the concentration for a half-maximal effect (EC50) was 100 to 350 nM.
With `Cc1ccc(Oc2ccc(Nc3ncnc4sc5c(c34)CCN(C(=O)/C=C/CN3CC(CO)(CO)C3)C5)cc2C)cn1` [Compound 134] the figure was 100 to 350 nM.
Under `Cc1cc(Nc2ncnc3sc4c(c23)CCN(C(=O)/C=C/CN(C)C)C4)ccc1Oc1ccn2ncnc2c1` [Compound 138, (E)-1-(4-((4-([1,2,4]triazolo[1,5-a]pyridin-7-yloxy)-3-methylphenyl)amino)-5,8-dihydropyrido[4′,3′:4,5]thieno[2,3-d]pyrimidin-7(6H)-yl)-4-(dimethylamino)but-2-en-1-one] stands below 100 nM; under `Cc1ccc(Oc2ccc(Nc3ncnc4sc5c(c34)CN(C(=O)/C=C/CN(C)C)C5)cc2Cl)cn1` [Compound 129, (E)-1-(4-((3-Chloro-4-((6-methylpyridin-3-yl)oxy)phenyl)amino)-5H-pyrrolo[3′,4′:4,5]thieno[2,3-d]pyrimidin-6(7H)-yl)-4-(dimethylamino)but-2-en-1-one], below 100 nM; under `Cc1ccc(Oc2ccc(Nc3ncnc4sc5c(c34)CCN(C(=O)/C=C/CN3CCCC(c4nccs4)C3)C5)cc2C)cn1` (centres unmarked) [Compound 113], below 100 nM.

Usually EC50 stands for the concentration that produces a half-maximal response.
